Source: patent US20140249105A1, “NOVEL CERAMIDE ANALOGUES, PROCESSES FOR PREPARING SAME AND USES THEREOF” (Diverchim, priority 2011, published 2014)
Values joined by “and” are separate entries in the source; they are usually repeats but may differ in a detail not shown here. Equal values may be shown once. Values belong to the molecule of their own block, whether it stands above or below them.

Tests used:
Format in all cases: cell-based
[1] = system: Human dermal fibroblasts aged according to the Hayflick model (P17NHDF); assay: Proliferation of aged human dermal fibroblasts, [3H]-thymidine incorporation; settings: 72 hours
Description: Thus, stimulation of the proliferation of the aged fibroblasts makes possible a partial reversal of the deleterious effects of ageing. • Biological model: Human dermal fibroblasts aged according to the Hayflick model (fibroblasts obtained by successive subculture) (P17NHDF) • Culture conditions: 37° C., 5% CO2 • Culture medium: DMEM/fetal calf serum (FCS) 10% • Conditions: • Control (n=6) • Control normal fibroblasts, not aged (P7 NHDF) (n=2) • Reference: EGF (Epidermal Growth Factor) at 10 ng/mL (n=2) • compounds tested (n=2) • Incubation: 72 hours • Assay: The effects on proliferation were evaluated by measuring the incorporation of [^3H]-thymidine in fibroblasts aged according to the Hayflick model. The Hayflick model consists of applying successive subcultures in order to induce an “aged” phenotype. The results are expressed in percentage stimulation of the incorporation of [^3H]-thymidine.

[2] = system: Normal human epidermal keratinocytes (NHEK); assay: Proliferation and/or migration of keratinocytes, artificial wound coverage; settings: percentage coverage at 48 h
Description: The phases of migration and proliferation of cells are major phases of healing that occur after the inflammation phase and are necessary for recolonization of the wound. An increase in the migration and proliferation of cells allows an improvement in healing. • Biological model: Normal human epidermal keratinocytes (NHEK) • Culture conditions: 37° C., 5% CO2 • Culture medium: Keratinocyte-SFM-PE-EGF (keratinocyte culture medium—serum free medium (SFM) without pituitary extract (PE) and without Epidermal Growth Factor (EGF) • Conditions: • Control (n=6) • Reference: EGF (Epidermal Growth Factor) at 10 ng/ml (n=2) • compounds tested (n=2) • Incubation: 72 hours • Assay: Normal human keratinocytes were seeded on 96-well plates suitable for the migration studies. In these plates, the substrates were pretreated with a solution of collagen and a mask was placed at the centre of each well, preventing adhesion of the cells in this zone and thus forming an artificial wound. After labelling the cells with calcein, the masks were removed and then the cells were treated with the compounds or the reference. The migration of the cells was monitored microscopically for 72 hours, taking photographs at 0 h, 24 h, 48 h and 72 h. The results are expressed in percentage coverage and compared with the untreated control.

[3] = molecular target: T1, tyrosinase (DOPA oxidase) (Homo sapiens, UniProt P14679); assay: Screening of anti-tyrosinase activity: DOPA oxidase reaction on separated epidermis, count of DOPA positive melanocytes per mm2; settings: for Variation/control: DOPA positive melanocyte count per mm2 vs DOPA control, product at 30 μg/mL in DMSO; for effectiveness for limiting tyrosinase activity compared with reference compounds: vs ref 1
T1 construct: from tissue; host or cells: separated human epidermis from a frozen abdominoplasty (melanocytes in situ)
T1 sequence (P14679 19-529): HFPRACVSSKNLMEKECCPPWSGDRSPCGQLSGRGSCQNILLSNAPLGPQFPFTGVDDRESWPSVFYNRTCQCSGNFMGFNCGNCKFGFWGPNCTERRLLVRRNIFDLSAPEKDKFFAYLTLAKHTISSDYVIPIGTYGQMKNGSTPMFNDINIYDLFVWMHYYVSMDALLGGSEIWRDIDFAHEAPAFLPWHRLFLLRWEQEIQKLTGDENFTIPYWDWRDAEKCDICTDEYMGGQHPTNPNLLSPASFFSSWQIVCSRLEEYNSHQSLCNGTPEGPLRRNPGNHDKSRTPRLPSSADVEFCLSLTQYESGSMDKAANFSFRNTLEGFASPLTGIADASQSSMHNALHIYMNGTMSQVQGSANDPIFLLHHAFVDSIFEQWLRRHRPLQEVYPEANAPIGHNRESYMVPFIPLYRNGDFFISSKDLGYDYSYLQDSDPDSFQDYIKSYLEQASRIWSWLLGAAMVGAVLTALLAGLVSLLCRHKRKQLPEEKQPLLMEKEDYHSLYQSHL
Description: The products are tested in solution at 30 μg/mL in DMSO. Epidermis samples originating from a frozen abdominoplasty (person) were separated by incubation in 2N NaBr for 1.0 h at 37° C. They were then fixed in a buffered formolized fixing agent, rinsed and put in contact with the volume/volume mixture: solutions of L-DOPA/test formulation. After incubation, they were rinsed and mounted between slide and cover slip with mounting liquid of the Aquatex type. Observation was by optical microscopy with ×10 objective. Images were obtained with a tri CCD Sony DXC […] camera and stored using the Leica IM1000 data archiving software. For each batch, several microscope fields were analysed using the LEICA QWin image analysis software. For each field, the DOPA positive melanocytes were counted and the area of the zone was measured to determine the melanocyte count per mm^2.

B16 melanocytes [4] = assay: Screening of anti-melanogenesis activity: melanin assay in B16 melanocytes stimulated with NDP-MSH; settings: 72 h; for inhibition at 30 µM / inhibition at 100 µM: Melanocyte, read-out: Normalized data inhibition (%)
Description: This was carried out for compounds in solution in DMSO. The synthesis of melanin was measured in a model of B16 melanocytes stimulated with a stable derivative of α-MSH (natural hormone that stimulates melanogenesis: Melanocyte Stimulating Hormone): NDP-MSH ([Nle^4, DPhe7]-α-MSH).
(§1) Melanocytes were seeded on a 96-well plate and cultured for 24 h (37° C., 5% CO2, DMEM 1 g/L glucose without phenol red supplemented with glucose 3 g/L, L-glutamine 2 mM, penicillin 50 U/mL, streptomycin 50 μg/mL, fetal calf serum (FCS) 10%). […] Each experimental condition was carried out with n=3, apart from the controls carried out with n=6. The cells were then incubated for 72 h. Wells without cells received in parallel the same quantities of medium, supplemented or not with NDP-MSH and with or without the test compounds or the reference in order to quantify the background noise associated with the presence of the compounds.
At the end of 72 hours of incubation, the total melanin (intra- and extracellular) was quantified by measuring the absorbance of each sample at 405 nm (direct reading of the culture plates) against a standard range of melanin (melanin concentrations tested from 0.78 to 100 μg/mL). The background noise, measured in the wells without cells, was subtracted from the values measured so that only the effect connected with the production of melanin is taken into account, without including any interference connected with the presence of the compounds. The results were expressed in percentage of melanin relative to the control as well as in percentage inhibition.

B16 melanocytes [5] = assay: Viability of the cells, test of reduction of MTT; settings: 72 h
Description: as §1
At the end of the treatment, the cells were incubated in the presence of MTT (3-(4,5-dimethylthiazol-2-yl)-2,5-diphenyl tetrazolium bromide), the conversion of which to blue crystals of formazan is proportional to the activity of succinate dehydrogenase (mitochondrial enzyme). After disruption of the cells, the formazan was dissolved in DMSO medium and the optical density (OD), representative of the number of live cells and of their metabolic reactivity, was measured with a microplate reader at 540 nm (VERSAmax, Molecular Devices).

Molecule: O=C(/C=C/CCCCCCCCCCCO)N[C@H]1C[C@H]1NC(=O)/C=C/CCCCCCCCCCCO [c7]
Stimulation (%) ([1]; 10 μM): 63%

Molecule: O=C(/C=C/CCCCCCCCCCCO)N[C@H]1CCC[C@H]1NC(=O)/C=C/CCCCCCCCCCCO [c17]
% control 48 h ([2]; 1 μM): 141 % control

Variation/control [3]: −16
Molecule: O=C(O)/C=C/CCCCCCCCCCCCCCCO [Ref 1, (E)-18-Hydroxy-octadec-2-enoic acid, reference compound]
inhibition at 30 µM (B16 melanocytes [4]; 30 μM): 0% | inhibition at 100 µM (B16 melanocytes [4]; 100 μM): 115% | Viability (MTT) % stimulated control (B16 melanocytes [5]; mouse, 30 μM): 79 % stimulated control | Viability (MTT) % stimulated control (B16 melanocytes [5]; mouse, 100 μM): 63 % stimulated control

Variation/control [3]: −36
Molecule: O=C(O)C(F)=CCCCCCCCCCCCO [Ref 4, 2-Fluoro-14-hydroxy-tetradec-2-enoic acid, reference compound]
inhibition at 30 µM (B16 melanocytes [4]; 30 μM): 0% | inhibition at 100 µM (B16 melanocytes [4]; 100 μM): 0% | Viability (MTT) % stimulated control (B16 melanocytes [5]; 30 μM): 114 % stimulated control | Viability (MTT) % stimulated control (B16 melanocytes [5]; 100 μM): 95 % stimulated control

Variation/control [3]: −45
Molecule: CCCCCCCCCCC/C=C/C(=O)N[C@H]1CCC[C@H]1NC(=O)/C=C/CCCCCCCCCCC [c79]
% control 48 h ([2]; 1 μM): 141 % control

Molecule: O=C(NC1CCCC1NC(=O)C(F)=CCCCCCCCCCCCCCCO)C(F)=CCCCCCCCCCCCCCCO (stereo not drawn) [c53]
% control 48 h ([2]; 3 μM): 137 % control

Variation/control [3]: −29
Molecule: O=C(O)/C=C/CCCCCCCCCCCCO [Ref 5, (E)-15-Hydroxy-pentadec-2-enoic acid, reference compound]

Molecule: EGF: Epidermal Growth Factor, reference
Stimulation (%) ([1]; 10 ng/ml): 89% | % control 48 h ([2]; 10 ng/mL): 161 % control

Molecule: O=C(N[C@H]1CCC[C@H]1NC(=O)/C(F)=C/CCCCCCCO)/C(F)=C/CCCCCCCO [c45]
% control 48 h ([2]; 3 μM): 145 % control

Variation/control [3]: −45
Molecule: CCCCCCCCC=CCCCCCCCC(=O)NC1CCCC1NC(=O)CCCCCCCC=CCCCCCCCC (stereo not drawn) [c127]

Variation/control [3]: −24
Molecule: O=C(O)/C=C/CCCCCCCCCO [Ref 6, (E)-12-Hydroxy-dodec-2-enoic acid, reference compound]

Variation/control [3]: −56
Molecule: O=C(NC1CCC(NC(=O)C(F)=CCCCCCCCCO)C1)C(F)=CCCCCCCCCO (mixture of isomers) [c59]
effectiveness for limiting tyrosinase activity compared with reference compounds [3]: more effective than the reference compounds | Normalized data inhibition (%) (B16 melanocytes [4]; 1 μM): 0% | Normalized data inhibition (%) (B16 melanocytes [4]; 3 μM): 9% | Normalized data inhibition (%) (B16 melanocytes [4]; 10 μM): 38% | Normalized data inhibition (%) (B16 melanocytes [4]; 30 μM): 71% | Normalized data inhibition (%) (B16 melanocytes [4]; 100 μM): 118% | Viability (MTT) % stimulated control (B16 melanocytes [5]; 1 μM): 108 % stimulated control | Viability (MTT) % stimulated control (B16 melanocytes [5]; 3 μM): 90 % stimulated control | Viability (MTT) % stimulated control (B16 melanocytes [5]; 10 μM): 88 % stimulated control | Viability (MTT) % stimulated control (B16 melanocytes [5]; 30 μM): 82 % stimulated control | Viability (MTT) % stimulated control (B16 melanocytes [5]; 100 μM): 2 % stimulated control

Molecule: O=C(NC1CC1NC(=O)C(F)=CCCCCCOC1CCCCO1)C(F)=CCCCCCOC1CCCCO1 (mixture of isomers) [c108]
Normalized data inhibition (%) (B16 melanocytes [4]; 30 μM): 73% | Normalized data inhibition (%) (B16 melanocytes [4]; 100 μM): 105% | Viability (MTT) % stimulated control (B16 melanocytes [5]; 30 μM): 75 % stimulated control | Viability (MTT) % stimulated control (B16 melanocytes [5]; 100 μM): 80 % stimulated control

Variation/control [3]: −61
Molecule: O=C(N[C@H]1C[C@H]1NC(=O)/C(F)=C/CCCCCCCCCCCO)/C(F)=C/CCCCCCCCCCCO [c40]
effectiveness for limiting tyrosinase activity compared with reference compounds [3]: more effective than the reference compounds | Normalized data inhibition (%) (B16 melanocytes [4]; 10 μM): −1% | Viability (MTT) % stimulated control (B16 melanocytes [5]; 10 μM): 89 % stimulated control | Viability (MTT) % stimulated control (B16 melanocytes [5]; 30 μM): 85 % stimulated control and 94 % stimulated control | Viability (MTT) % stimulated control (B16 melanocytes [5]; 100 μM): 86 % stimulated control and 94 % stimulated control | % control 48 h ([2]; 30 μM): 144 % control

Molecule: O=C(O)C(F)=CCCCCCCCCCCCCCCCO [Ref 2, 18-Hydroxy-octadec-2-en-2-fluoro-oic acid, reference compound]
Normalized data inhibition (%) (B16 melanocytes [4]; 30 μM): 0% | Normalized data inhibition (%) (B16 melanocytes [4]; 100 μM): 79% | Viability (MTT) % stimulated control (B16 melanocytes [5]; 30 μM): 83 % stimulated control | Viability (MTT) % stimulated control (B16 melanocytes [5]; 100 μM): 72 % stimulated control

Molecule: O=C(N[C@H]1CCC[C@H]1NC(=O)/C(F)=C\CCCCCCCCO)/C(F)=C\CCCCCCCCO [c49]
Normalized data inhibition (%) (B16 melanocytes [4]; 30 μM): 83% | Normalized data inhibition (%) (B16 melanocytes [4]; 100 μM): 118% | Viability (MTT) % stimulated control (B16 melanocytes [5]; 30 μM): 83 % stimulated control | Viability (MTT) % stimulated control (B16 melanocytes [5]; 100 μM): 0 % stimulated control

Variation/control [3]: −48
Molecule: O=C(/C=C/CCCCCCCCCCCCCCO)N[C@H]1C[C@@H]1NC(=O)/C=C/CCCCCCCCCCCCCCO (relative stereo) [c93]

Molecule: O=C(N[C@H]1C[C@H]1NC(=O)C(F)=CCCCCCCCO)C(F)=CCCCCCCCO [c36]
% control 48 h ([2]; 3 μM): 154 % control

Molecule: O=C(NC1CCCC1NC(=O)C(F)=CCCCCCCCCOC1CCCCO1)C(F)=CCCCCCCCCOC1CCCCO1 (mixture of isomers) [c71]
Normalized data inhibition (%) (B16 melanocytes [4]; 30 μM): 93% | Normalized data inhibition (%) (B16 melanocytes [4]; 100 μM): 109% | Viability (MTT) % stimulated control (B16 melanocytes [5]; 30 μM): 116 % stimulated control | Viability (MTT) % stimulated control (B16 melanocytes [5]; 100 μM): 104 % stimulated control

Molecule: O=C(NC1CCC(NC(=O)C(F)=CCCCCCO)C1)C(F)=CCCCCCO (stereo not drawn) [c116]
Normalized data inhibition (%) (B16 melanocytes [4]; 30 μM): 6% | Normalized data inhibition (%) (B16 melanocytes [4]; 100 μM): 87% | Viability (MTT) % stimulated control (B16 melanocytes [5]; 30 μM): 88 % stimulated control | Viability (MTT) % stimulated control (B16 melanocytes [5]; 100 μM): 91 % stimulated control

Variation/control [3]: −15
Molecule: O=C(O)/C=C/CCCCCCCCCCCO [Ref 3, (E)-14-Hydroxy-tetradec-2-enoic acid, reference compound]
